From patent US5472942A, “Anti-thrombins” (priority 1988, dated 1995)

System: human blood
Assay: Partial thromboplastic time
Conditions: equivalent doses; anti-thrombin of the invention compared with hirudin
Description: The anti-thrombin according to the invention and hirudin do however, have similar partial thromboplastic times for equivalent doses.

hirudin: thrombin-specific polypeptide of 65 amino acids from Hirudo medicinalis [reference compound]
partial thromboplastic times: similar
